According to patent US12391706B2, “Multi-target tyrosine kinase inhibitor” (SHENZHEN NEPTUNUS PHARMACEUTICAL RESEARCH INSTITUTE CO., …, priority 2020, dated 2025):

Key:
[1] = tested on: MKN-45 gastric cancer cells; assay: Gastric cancer cell MKN45 xenograft model; assay type: in vivo, nude mice; details: oral 100 mg·kg^−1 once a day for 14 days
Text: • 1. Compounds (td32-4, td32-4P3, td32-4P6, td32-4P9, td32-4P10) were selected for in vivo activity evaluation at a single concentration. The animal model was gastric cancer cell MKN45 xenograft model.
(§1) Test method: 5×10^6 MKN-45 gastric cancer cells were inoculated under the fat pad of the right rib of nude mice, and the tumor formation was observed. Two weeks after the inoculation, the tumor-bearing mice were divided into groups and orally administered with td32-4, td32-4P3, td32-4P6, td32-4P9, and td32-4P10 at a dose of 100 mg·kg^−1, once a day for 14 days, respectively. Tumor volumes were measured with a caliper and recorded.

[2] = In vivo transformation / pharmacokinetic study in SD rats; details: for time to almost complete conversion into td32-4 in vivo: oral 200 mg·kg^−1
Text: The compounds of the present invention have improved solubility by introducing a hydrophilic functional group into the structure of td32-4 through an ester bond. After oral administration, the compounds need to be converted into td32-4 in the physical and chemical environment in vivo to exert pharmacological effects. In this example, some representative compounds were selected for in vivo pharmacokinetic studies in SD rats, and compared with direct oral administration of td32-4. The experiment was performed at high (200 mg·kg^−1) and low (10 mg·kg^−1) doses. 5 mg of the test sample was placed into a glass bottle. 1 mL of DMA (dimethylacetamide) was added and vortexed to dissolve the solid completely. 1.5 mL of PEG400 was added, vortexed and mixed well. 2.5 mL of physiological saline for injection was added, vortexed, mixed well. The mixture was filtered with a filter membrane (PALL, Nylon, 0.45 μm) to obtain a colorless and clear solution. The test sample was administered to experimental animals (n=3) by tail vein injection at a dose of 5 mg·kg^−1 (1 mg·mL^−1). An appropriate amount of the test sample was placed into a glass bottle. PEG400 was added, vortexed and mixed well. The mixture was sonicated to obtain a clear solution. The test sample was administered to experimental animals (n=3) by gavage at a dose of 10 mg·kg^−1 and 200 mg·kg^−1, respectively. SD rats were weighed before administration, and the dose was calculated according to the body weight. They were administered by intravenous injection or by gavage. Blood was collected through the submandibular vein or other suitable ways, at intervals of 0, 0.083, 0.25, 0.5, 1, 2, 4, 8, 12, 24 hours. About 0.20 mL of each sample was collected, anticoagulated with EDTA-K2, and placed on ice after collection, and centrifuged within 1 hour to separate plasma (centrifugation conditions: 6800 g, 6 minutes, 2-8° C.). Plasma samples were stored in a −80° C. freezer prior to analysis. The blood drug concentration of each sample was analyzed using LC-MS/MS. […]

[3] = Solubility test (water), Chinese Pharmacopoeia 2015; assay type: physicochemical; details: 25° C.±2° C., dissolution within 30 minutes
Description: The series of compounds synthesized in Examples 1-24 were subjected to solubility test (water), according to the solubility test methods in Chinese Pharmacopoeia, 2015 Edition. The specific test operations and evaluation criteria are as follows: An appropriate amount (1 mg-10 mg) of finely powdered compound was weighed, placed in a certain volume of solvent at 25° C.±2° C., and shaken vigorously for 30 seconds every 5 minutes; the dissolution within 30 minutes was observed. It was considered completely dissolved if there were no visible particles or droplets of the solute. [table]

H358 = H358 nude mouse xenograft model; assay type: in vivo; details: 50 mg/kg * 21 d, i.g, QD
Description: as §1
(§2) The compound td32-4P10 was selected for in vivo activity evaluation. The tumor inhibitory activity data of td32-4P10 were tested in MV-4-11, H358 and H82 nude mouse xenograft model, respectively. Meanwhile, the changes in tumor volume during the treatment, and the changes in body weight of the nude mice induced by the drug during the treatment were measured. After the treatment, the tumor weights were counted. The tumor anatomical images after the treatment were recorded.

H82 = H82 nude mouse xenograft model; assay type: in vivo; details: 50 mg/kg * 14 d, i.g, QD
Description: as §1, §2

MV-4-11 = MV-4-11 nude mouse xenograft model; assay type: in vivo; details: MV-4-11 xenograft, 50 mg/kg * 21 d, i.g, QD
Description: as §1, §2

VEGFR = details: cited from earlier work
[4] = low dose (10 mg·kg^−1), solution; cited from earlier work
c-Kit = c-Kit (Homo sapiens, UniProt P10721); details: cited from earlier work
Chain of c-Kit (P10721 26-976): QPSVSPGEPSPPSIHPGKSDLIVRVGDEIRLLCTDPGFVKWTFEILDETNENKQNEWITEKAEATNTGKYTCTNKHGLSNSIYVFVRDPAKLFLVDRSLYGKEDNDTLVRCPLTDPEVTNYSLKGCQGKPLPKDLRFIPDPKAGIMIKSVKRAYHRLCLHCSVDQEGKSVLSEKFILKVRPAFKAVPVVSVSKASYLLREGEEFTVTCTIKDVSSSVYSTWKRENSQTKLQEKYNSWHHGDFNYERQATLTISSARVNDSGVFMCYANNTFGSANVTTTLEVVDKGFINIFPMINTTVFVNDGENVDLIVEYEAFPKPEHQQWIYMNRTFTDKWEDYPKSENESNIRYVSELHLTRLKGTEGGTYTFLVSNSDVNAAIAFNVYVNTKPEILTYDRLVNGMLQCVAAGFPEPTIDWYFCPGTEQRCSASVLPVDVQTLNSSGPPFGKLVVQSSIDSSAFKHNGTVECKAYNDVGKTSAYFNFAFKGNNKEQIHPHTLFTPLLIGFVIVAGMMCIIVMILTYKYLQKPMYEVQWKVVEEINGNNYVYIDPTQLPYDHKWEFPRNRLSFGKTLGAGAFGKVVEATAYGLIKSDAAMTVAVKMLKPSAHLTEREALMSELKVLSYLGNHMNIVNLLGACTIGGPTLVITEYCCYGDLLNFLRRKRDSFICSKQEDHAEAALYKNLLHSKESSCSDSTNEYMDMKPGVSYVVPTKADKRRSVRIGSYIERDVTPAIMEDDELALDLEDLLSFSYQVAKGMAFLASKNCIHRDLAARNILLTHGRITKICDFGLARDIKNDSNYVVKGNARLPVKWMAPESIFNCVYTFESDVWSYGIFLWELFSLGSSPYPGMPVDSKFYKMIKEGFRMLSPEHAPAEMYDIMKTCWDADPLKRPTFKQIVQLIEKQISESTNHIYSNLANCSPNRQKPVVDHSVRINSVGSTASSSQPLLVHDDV

c-Met = c-Met (Homo sapiens, UniProt P08581); details: cited from earlier work
Chain of c-Met (P08581 25-1390): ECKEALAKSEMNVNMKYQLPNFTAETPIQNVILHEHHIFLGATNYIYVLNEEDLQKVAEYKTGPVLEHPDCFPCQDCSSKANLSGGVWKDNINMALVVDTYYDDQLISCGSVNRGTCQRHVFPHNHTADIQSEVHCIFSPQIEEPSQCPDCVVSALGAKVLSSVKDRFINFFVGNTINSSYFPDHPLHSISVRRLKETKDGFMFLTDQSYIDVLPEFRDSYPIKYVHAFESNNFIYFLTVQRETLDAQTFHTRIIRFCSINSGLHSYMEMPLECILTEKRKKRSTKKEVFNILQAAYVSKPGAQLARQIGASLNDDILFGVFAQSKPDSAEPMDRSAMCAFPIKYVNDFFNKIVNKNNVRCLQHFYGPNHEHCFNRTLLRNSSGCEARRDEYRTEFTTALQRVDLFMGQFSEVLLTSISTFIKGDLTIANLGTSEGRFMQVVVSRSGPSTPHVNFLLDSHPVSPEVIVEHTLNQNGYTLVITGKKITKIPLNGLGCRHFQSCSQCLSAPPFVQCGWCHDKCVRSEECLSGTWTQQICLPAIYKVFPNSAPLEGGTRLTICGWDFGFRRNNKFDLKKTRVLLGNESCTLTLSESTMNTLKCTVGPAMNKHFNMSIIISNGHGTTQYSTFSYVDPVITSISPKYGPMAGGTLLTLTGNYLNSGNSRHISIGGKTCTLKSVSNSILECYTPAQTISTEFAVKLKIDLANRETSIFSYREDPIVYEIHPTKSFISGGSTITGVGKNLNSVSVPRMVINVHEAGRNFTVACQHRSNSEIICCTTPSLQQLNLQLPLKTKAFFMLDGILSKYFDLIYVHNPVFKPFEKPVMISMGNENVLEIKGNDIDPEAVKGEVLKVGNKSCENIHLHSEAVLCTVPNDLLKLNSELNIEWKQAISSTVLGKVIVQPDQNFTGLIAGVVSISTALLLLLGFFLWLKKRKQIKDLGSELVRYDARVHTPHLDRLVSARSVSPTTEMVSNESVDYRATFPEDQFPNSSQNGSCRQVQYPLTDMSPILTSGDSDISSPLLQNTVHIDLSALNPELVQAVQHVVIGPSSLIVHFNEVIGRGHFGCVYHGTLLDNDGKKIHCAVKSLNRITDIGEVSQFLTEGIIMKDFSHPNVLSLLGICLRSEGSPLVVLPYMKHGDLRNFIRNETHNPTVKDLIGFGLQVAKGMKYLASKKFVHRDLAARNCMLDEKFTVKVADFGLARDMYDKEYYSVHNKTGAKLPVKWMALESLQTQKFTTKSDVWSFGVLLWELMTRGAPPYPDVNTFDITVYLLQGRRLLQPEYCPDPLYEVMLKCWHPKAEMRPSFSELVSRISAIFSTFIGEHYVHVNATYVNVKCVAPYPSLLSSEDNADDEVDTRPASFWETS

[5] = tested on: multiple tumor cell models; details: cited from earlier work
[6] = cited from earlier work

SMILES	tumor inhibitory effect (tumor volume) [1]	conversion into td32-4 in vivo ([2]; oral 10 mg·kg^−1)	time to almost complete conversion into td32-4 in vivo [2]	Water solubility test Result [3]	T/C (%) (H358)	TGI (%) (H358)	T/C (%) (H82)	TGI (%) (H82)	T/C (%) (MV-4-11)	TGI (%) (MV-4-11)	inhibitory activity (VEGFR)	oral bioavailability F [4]	inhibitory activity (c-Kit)	inhibitory activity (c-Met)	anti-proliferative activity [5]	water solubility [6]
CN(C)CC(=O)OCCn1cc(-c2cc3nccc(Oc4ccc(NC(=O)C5(C(=O)Nc6ccc(F)cc6)CC5)cc4F)c3s2)cn1 [td32-4P3, 2-(4-(7-(2-fluoro-4-(1-((4-fluorophenyl)carbamoyl)cyclopropane-1-carboxamide)phenoxy)thieno[3,2-b]pyridin-2-yl)-1H-pyrazolyl-1-yl)ethyldimethyl glycinate]	potent tumor inhibitory effect	rapidly converted	≤ 18 h	C (1 g of solute is soluble in 10~30 mL of sovent)	–	–	–	–	–	–	–	–	–	–	–	–
CC(C)C(N)C(=O)OCCn1cc(-c2cc3nccc(Oc4ccc(NC(=O)C5(C(=O)Nc6ccc(F)cc6)CC5)cc4F)c3s2)cn1 (stereo not drawn) [td32-4P10, 2-(4-(7-(2-fluoro-4-(1-((4-fluorophenyl)carbamoyl)cyclopropane-1-carboxamide)phenoxy)thieno[3,2-b]pyridin-2-yl)-1H-pyrazolyl-1-yl)ethyl valinate]	potent tumor inhibitory effect	–	≤ 18 h	C (1 g of solute is soluble in 10~30 mL of sovent)	6.6%	112%	11%	92%	3.4%	109%	–	–	–	–	–	–
O=C(Nc1ccc(F)cc1)C1(C(=O)Nc2ccc(Oc3ccnc4cc(-c5cnn(CCO)c5)sc34)c(F)c2)CC1 [td32-4]	did not show significant activity	–	–	G (1 g of solute is insoluble in 10000 mL of solvent)	–	–	–	–	–	–	potent inhibitory activity	71.6%	potent inhibitory activity	potent inhibitory activity	potent anti-proliferative activity	extremely poor water solubility
